From ChEMBL document CHEMBL4219072, “Enhancing the anti-biofilm activity of 5-aryl-2-aminoimidazoles through nature inspired dimerisation” (Bioorg Med Chem, 2018)

How the values were obtained:
[1] = tested on: Pseudomonas aeruginosa; assay: Antibiofilm activity against Pseudomonas aeruginosa PA14 after 24 hrs by crystal violet staining based assay; format: functional, organism-based; settings: PA14, 24 h
[2] = tested on: Escherichia coli; assay: Inhibition of planktonic growth of Escherichia coli TG1 after 24 hrs; format: organism-based; settings: TG1, 24 h
[3] = tested on: Salmonella typhimurium; assay: Antibiofilm activity against Salmonella typhimurium ATCC 14028 after 24 hrs by crystal violet staining based assay; format: functional, organism-based, Salmonella enterica subsp. enterica serovar Typhimurium; settings: Salmonella enterica, ATCC 14028, 24 h
[4] = tested on: Staphylococcus aureus; assay: Antibiofilm activity against Staphylococcus aureus SH1000 after 48 hrs by crystal violet staining based assay; format: functional, organism-based; settings: SH1000, 48 h
[5] = tested on: Salmonella typhimurium; assay: Inhibition of planktonic growth of Salmonella typhimurium ATCC 14028 after 24 hrs; format: organism-based, Salmonella enterica subsp. enterica serovar Typhimurium; settings: Salmonella enterica, ATCC 14028, 24 h
[6] = tested on: Staphylococcus aureus; assay: Inhibition of planktonic growth of Staphylococcus aureus SH1000 after 48 hrs; format: organism-based; settings: SH1000, 48 h
[7] = tested on: Escherichia coli; assay: Antibiofilm activity against Escherichia coli TG1 after 24 hrs by crystal violet staining based assay; format: functional, organism-based; settings: TG1, 24 h

SMILES | IC50 [1] [µM] | IC50 [3] [µM] | IC50 [4] [µM] | IC50 [7] [µM] | IC50 [2] [µM] | IC50 [5] [µM] | IC50 [6] [µM]
c1ccc(-c2cnc(NCCCCCCNc3ncc(-c4ccccc4)[nH]3)[nH]2)cc1 | 23.7 | 14.2 | 99.4 | 2 | 2.58 | 41.3 | 113
Fc1ccc(-c2cnc(NCCCCCNc3ncc(-c4ccc(F)cc4)[nH]3)[nH]2)cc1 | 1.7 | 7.6 | 150 | 7 | 16.4 | 85.4 | 105
Nc1ncc(-c2ccc(F)cc2)[nH]1 | – | – | > 800 | 75.5 | – | – | –
Nc1ncc(-c2ccccc2)[nH]1 | – | – | > 800 | 146 | – | – | –
Fc1ccc(-c2cnc(NCCCNc3ncc(-c4ccc(F)cc4)[nH]3)[nH]2)cc1 | 5.7 | 6.3 | 50 | 4.8 | 16.2 | 59.2 | 60.1
Fc1ccc(-c2cnc(NCCCCNc3ncc(-c4ccc(F)cc4)[nH]3)[nH]2)cc1 | 5.6 | 5.9 | 40.6 | 6.5 | 4.55 | 46 | 144
Brc1ccc(-c2cnc(NCCCNc3ncc(-c4ccc(Br)cc4)[nH]3)[nH]2)cc1 | 11.2 | 5.5 | 24.2 | 4.1 | 4.77 | 11.9 | 29.2
Fc1ccc(-c2cnc(NCCCCCCNc3ncc(-c4ccc(F)cc4)[nH]3)[nH]2)cc1 | 10.1 | 10.3 | 8.9 | 5.4 | 5.52 | 23.8 | 28.7
Brc1ccc(-c2cnc(NCCCCCCNc3ncc(-c4ccc(Br)cc4)[nH]3)[nH]2)cc1 | 8.8 | 15.7 | 53.3 | 8.3 | 6.43 | > 800 | 93.8
Fc1ccc(-c2cnc(NCCCCCCCNc3ncc(-c4ccc(F)cc4)[nH]3)[nH]2)cc1 | 7.5 | 10.4 | 107 | 10 | 7.48 | 86.1 | 121
c1ccc(-c2cnc(NCCCCCNc3ncc(-c4ccccc4)[nH]3)[nH]2)cc1 | 1.2 | 4.6 | 180 | 5.2 | 19.9 | 59.6 | 108
Brc1ccc(-c2cnc(NCCCCCCCCNc3ncc(-c4ccc(Br)cc4)[nH]3)[nH]2)cc1 | 893 | 31.3 | 68.1 | 90.6 | 136 | > 800 | 69.3
Fc1ccc(-c2cnc(NCCCCCCCCNc3ncc(-c4ccc(F)cc4)[nH]3)[nH]2)cc1 | 15.2 | 11.6 | 372 | 31.5 | 47.6 | > 800 | 250
c1ccc(-c2cnc(NCCCNc3ncc(-c4ccccc4)[nH]3)[nH]2)cc1 | 2.8 | 5.7 | 300 | 4.1 | 2.82 | 75.9 | 292
Nc1ncc(-c2ccc(Br)cc2)[nH]1 | – | – | 152 | 8.8 | – | – | –
c1ccc(-c2cnc(NCCCCCCCCNc3ncc(-c4ccccc4)[nH]3)[nH]2)cc1 | 21.3 | 11.2 | 300 | 19.3 | 48.7 | > 800 | 230
Brc1ccc(-c2cnc(NCCCCCNc3ncc(-c4ccc(Br)cc4)[nH]3)[nH]2)cc1 | 13.4 | 6.5 | 12 | 10.5 | 22.4 | 35.9 | 26.4
c1ccc(-c2cnc(NCCCCNc3ncc(-c4ccccc4)[nH]3)[nH]2)cc1 | 5.9 | 7.7 | 28.6 | 12.3 | 6.81 | 49.4 | 301
Nc1ncc(-c2ccc(Cl)cc2)[nH]1 | – | – | 121 | 18 | – | – | –

The next lines start with results.

IC50 [1] [µM] | IC50 [3] [µM] | IC50 [4] [µM] | IC50 [7] [µM] | SMILES | IC50 [2] [µM] | IC50 [5] [µM] | IC50 [6] [µM]
3.1 | 3.9 | 7.2 | 6.4 | Nc1ncc(-c2ccc(Br)cc2)n1CCCCn1c(-c2ccc(Br)cc2)cnc1N | 6.09 | 200 | 9.17
3.7 | 3.7 | 11.7 | 8 | Nc1ncc(-c2ccccc2)n1CCCCCCCn1c(-c2ccccc2)cnc1N | > 800 | > 400 | 32.7
2.5 | 2.7 | 15 | 6.3 | Nc1ncc(-c2ccc(Br)cc2)n1CCCn1c(-c2ccc(Br)cc2)cnc1N | 9.93 | 11.5 | 22
12.2 | 1.5 | 22.4 | 7 | Nc1ncc(-c2ccc(F)cc2)n1CCCCCCCCn1c(-c2ccc(F)cc2)cnc1N | 7.13 | 100 | 11.7
11.6 | 3.2 | 48 | 1.8 | Nc1ncc(-c2ccc(F)cc2)n1CCCCCCn1c(-c2ccc(F)cc2)cnc1N | > 800 | 23.8 | 34.4
80.4 | 30.5 | 150 | 24.8 | Clc1ccc(-c2cnc(NCCCCCCNc3ncc(-c4ccc(Cl)cc4)[nH]3)[nH]2)cc1 | 96.6 | 529 | 327
3.1 | 4.1 | 26.4 | 4.5 | Nc1ncc(-c2ccc(Cl)cc2)n1CCCn1c(-c2ccc(Cl)cc2)cnc1N | 7.56 | 11 | 26.4
5.8 | 8.4 | 11.2 | 8.2 | Nc1ncc(-c2ccc(Br)cc2)n1CCCCCCn1c(-c2ccc(Br)cc2)cnc1N | > 400 | > 400 | 11.1
12 | 4.8 | 60.7 | 7.5 | Nc1ncc(-c2ccc(F)cc2)n1CCCCCn1c(-c2ccc(F)cc2)cnc1N | 3.74 | 85.4 | 59.7
4 | 3 | 51.3 | 2.9 | Nc1ncc(-c2ccccc2)n1CCCCCCn1c(-c2ccccc2)cnc1N | > 800 | 100 | 53.8
5.6 | 2.7 | 13 | 4.9 | Clc1ccc(-c2cnc(NCCCNc3ncc(-c4ccc(Cl)cc4)[nH]3)[nH]2)cc1 | 14.7 | 11.4 | 23.5
4.5 | 7.7 | 2.8 | 0.8 | Nc1ncc(-c2ccc(Br)cc2)n1CCCCCCCCn1c(-c2ccc(Br)cc2)cnc1N | 2.99 | > 400 | 2
6 | 3.8 | 94.4 | 12 | Clc1ccc(-c2cnc(NCCCCCNc3ncc(-c4ccc(Cl)cc4)[nH]3)[nH]2)cc1 | 224 | 15.2 | 90.2
252 | 50.4 | 300 | 19.1 | Brc1ccc(-c2cnc(NCCCCCCCNc3ncc(-c4ccc(Br)cc4)[nH]3)[nH]2)cc1 | 122 | > 800 | 217
31.6 | 8.3 | 300 | 42.7 | Clc1ccc(-c2cnc(NCCCCCCCCNc3ncc(-c4ccc(Cl)cc4)[nH]3)[nH]2)cc1 | 44 | 47.8 | 121
6.6 | 5.1 | 13.5 | 12 | Nc1ncc(-c2ccc(Cl)cc2)n1CCCCCn1c(-c2ccc(Cl)cc2)cnc1N | 13.4 | 19.1 | 24.3
33.1 | 20.2 | 96.1 | 10.5 | Nc1ncc(-c2ccccc2)n1CCCCCn1c(-c2ccccc2)cnc1N | > 800 | 89.8 | 85.7
11.6 | 7.4 | 171 | 7.5 | Nc1ncc(-c2ccc(F)cc2)n1CCCn1c(-c2ccc(F)cc2)cnc1N | 10.7 | 103 | 124
23.6 | 13.5 | 275 | 27.5 | Nc1ncc(-c2ccccc2)n1CCCCn1c(-c2ccccc2)cnc1N | 50.4 | 59.3 | 255
4.9 | 3.3 | 10.6 | 6.1 | Nc1ncc(-c2ccc(Cl)cc2)n1CCCCCCCn1c(-c2ccc(Cl)cc2)cnc1N | > 400 | 200 | 16.2
120 | 23 | 150 | 35 | Clc1ccc(-c2cnc(NCCCCCCCNc3ncc(-c4ccc(Cl)cc4)[nH]3)[nH]2)cc1 | 29.8 | > 800 | 141
3.2 | 4.8 | 8.6 | 4 | Nc1ncc(-c2ccc(Cl)cc2)n1CCCCCCn1c(-c2ccc(Cl)cc2)cnc1N | > 400 | 300 | 7.4
